In patent US20220251096A1, “7,8-DIHYDRO-4H-PYRAZOLO[4,3-c]AZEPINE-6-ONE COMPOUNDS” (Eli Lilly and Company, priority 2019, published 2022):
Where “and” joins values, the source holds several entries; their conditions need not be identical. Equal entries are not always repeated.

Columns and labels:
EP300 = target: T1, EP300 (Homo sapiens, UniProt Q09472); assay: BromoKdELECT platform assay, EP300; assay type: binding; set-up: purchased DiscoverX (BromoKdELECT service); conditions: 11 points dose-response, mean from a duplicate experiment
T1 sequence (Q09472 1049-1156 limits assumed): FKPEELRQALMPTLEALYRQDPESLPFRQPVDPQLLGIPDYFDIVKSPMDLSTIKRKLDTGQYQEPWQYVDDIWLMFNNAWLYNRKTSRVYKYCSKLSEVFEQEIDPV
Description: The purpose of this assay is to evaluate the in vitro target engagement and selectivity (https://www.discoverx.com/services/drug-discovery-development-services/epigenetic-profiling/bromoscan-epigenetic-profiling/bromokdelect). Assay measurement is based on the amount of bromodomain captured in test and control samples by using quantitative PCR technology that detects the DNA label associated to bromodomain. Compounds that bind the bromodomain active site prevents its binding to the immobilized ligand and will reduce the amount of bromodomain captured on the solid support. […] Thus, compound activity is monitored by measuring the amount of bromodomain captured in test versus control samples by using qPCR. Binding affinity for test compound-bromodomain interactions are calculated by measuring the amount of bromodomain captured on the solid support as a function of the test compound concentration.
Binding affinity (Kd) of the compounds of Examples 1 and 2 towards CREBBP, EP300 and BRD4 (Bromodomain 1 (BD1) and Bromodomain 2 (BD2)) are determined in an 11 points dose-response study (See Table 5). Data is represented as a mean from a duplicate experiment.

[1] = test system: 22Rv1 prostate cancer cells; assay: Cell proliferation assay in 22Rv1; assay type: cell-based; conditions: 22Rv1, 7 days
Experimental: The purpose of the following cell proliferation assay is to detect whether the compound of Example 2 and combinations thereof have an effect on cell proliferation.
22Rv1 (purchased from ATCC CRL-2505) cells are seeded at a density of 1,000 cells per well in RMPI 10% FBS (20 μL volume) into a clear bottom 384-well cell culture plate. The plate is incubated at 37° C. and 5% CO2. The cells are dosed the following day with the compound of Example 2 and the compound of Example 2 in combination with the known anti-cancer therapeutics found in the table below. An Echo 555 acoustic dispenser is used to prepare serial dilutions (1:3) of the compound of Example 2, and combinations thereof, in concentrations ranging from 60 μM to 0.003 μM. The cells are then dosed by addition of 5 μL from the serial dilution plate to the cell plate, producing a final DMSO concentration of 0.2% with a final concentration dose ranging from 20 μM to 0.001 μM for the compound of Example 2 and combinations thereof.
Media containing 0.2% DMSO is used for the maximum point and 2 μM staurosporine in the growth media containing 0.2% DMSO is used for the minimum point. After dosing with the compound of Example 2 and combinations thereof, the cell plates are incubated at 37° C. and 5% CO2. Seven days after test compound addition, plates are removed from the incubator and cold EtOH (96%, 65 μL) is added to each well. After 30 minutes, the media is removed and RNase (20 μL, 50 μg/mL) (Sigma) and a 1:1000 propidium iodide dilution in PBS are added to each well. The plates are sealed and incubated for 1 hour at room temperature and preserved from light. Plates are then scanned with ACUMEN EXPLORER™ [Laser-scanning fluorescence microplate cytometer manufactured by TTP LABTECH LTD]. The number of 22Rv1 cells is evaluated through an estimated number of cells, calculated through the area parameter (ratio of total area of the total cells population), a designated range of peak intensity of FL-3 (PI), and the mean area of the single cell population defined by perimeter. Data is then processed through an NGR screening tool. Data is analyzed using a 4-parameter nonlinear logistic equation (four-parameter logistic concentration-response curve): Y=bot+[(top−bot)/1+(x/IC50)slope] where Y=% inhibition, X=concentration yielding y % inhibition, “bot”=minimum value of y attained by curve, “top”=maximum value of y attained by curve, and “slope”=steepness of curve at IC50. % Inh=[(median Max−x/median Max−median Min)]·100.

HL-60 = assay: Cell growth inhibition assay, HL-60; assay type: cell-based; conditions: Homo sapiens, 168 h; HL-60, 7 days
Experimental: (§1) Tumor cell lines are plated onto 96-well, black wall poly-D-lysine plates (Corning #354640), and incubated at 37° C., 5% CO2 for 18-24 hours. Compound was added at 1:3 dilutions in DMSO and cells were incubated at 37° C., 5% CO2 for 7 days. For adherent cell lines, cells were fixed and stained with propidium iodide and scanned on Acumen (channel 3 setting). For suspension cell lines, cell growth was monitored using Cell Titer-Glo reagent.

Kasumi (AML1-ETO) = assay: Cell growth inhibition assay, Kasumi (AML1-ETO); assay type: cell-based; conditions: 168 h, 7 days
Experimental: as §1

Q: Which Kd (EP300) does the source give for `CCNC(=O)c1ccc(-c2cc3cccc(-c4nn(C)c5c4CN(C)C(=O)CC5)c3cn2)cn1` [Example 2, 5-[8-(1,5-Dimethyl-6-oxo-7,8-dihydro-4H-pyrazolo[4,3-c]azepin-3-yl)-3-isoquinolyl]-N-ethyl-pyridine-2-carboxamide] here?
A: 0.095 nM

Q: What about the “Cell Proliferation % Inhibition” value ([1]; single agent at 120 nM, 0.12 µM) of the same compound?
A: 9.62%

Q: What about the “Cell Proliferation % Inhibition” value ([1]; single agent at 370 nM, 0.37 µM) of the same compound?
A: 18.68% and 31.53%

Q: What about the inhibition at 0.12 µM ([1]; Homo sapiens, 22Rv1, 168 h, single agent at 120 nM) of the same compound?
A: 17.4%

Q: What about the inhibition at 0.37 µM ([1]; Homo sapiens, 22Rv1, 168 h, single agent at 370 nM) of the same compound?
A: 35.4%

Q: What about the inhibition at 0.74 µM ([1]; Homo sapiens, 22Rv1, 168 h, single agent at 740 nM) of the same compound?
A: 12.2%

Q: What about the inhibition at 2.2 µM ([1]; Homo sapiens, 22Rv1, 168 h, single agent at 2.2 μM) of the same compound?
A: 19.3%

Q: And the inhibition at 3.3 µM ([1]; Homo sapiens, 22Rv1, 168 h, single agent at 3.3 μM)?
A: 46.3%

Q: What about the IC50 (HL-60) of the same compound?
A: 328 nM

Q: And the IC50 (Kasumi (AML1-ETO))?
A: 8 nM
